# Data published in patent US10308620B2, “Muscarinic M1 receptor positive allosteric modulators” (SUVEN LIFE SCIENCES LIMITED, priority 2015, dated 2019).
# Counter-ions that a name gives are not always drawn.
# Molecular target: recombinant human Muscarinic M1 receptor (Homo sapiens (Human), UniProt P11229)
# Assay: Allosteric potency EC50, CHO cells with pCRE-Luc reporter, in presence of EC20 of acetylcholine
# Assay type: cell-based
# Settings: 4 hours
# Procedure: Determination of Allosteric Potency EC50 Values for Muscarinic M1 Receptor:
# A stable CHO cell line expressing recombinant human Muscarinic M1 receptor and pCRE-Luc reporter system was used for cell-based assay. The assay offers a non-radioactive based approach to determine binding of a compound to GPCRs. In this specific assay, the level of intracellular cyclic AMP which is modulated by activation or inhibition of the receptor is measured. The recombinant cells harbor luciferase reporter gene under the control of cAMP response element.
# The above cells were grown in 96 well clear bottom white plates in Hams F12 medium containing 10% fetal bovine serum (FBS). Prior to the addition of compounds or standard agonist, cells were serum starved overnight. Increasing concentrations of test compounds were added along with EC20 of acetylcholine in OptiMEM medium to the cells. The incubation was continued at 37° C. in CO2 incubator for 4 hours. Medium was removed and cells were washed with phosphate buffered saline. The cells were lysed and luciferase activity was measured in a Luminometer. Luminescence units were plotted against the compound concentrations using Graphpad software. EC50 values of the compounds were defined as the concentration required in stimulating the luciferase activity by 50% in presence of EC20 of acetylcholine.
# Chain of recombinant human Muscarinic M1 receptor (P11229 whole entry): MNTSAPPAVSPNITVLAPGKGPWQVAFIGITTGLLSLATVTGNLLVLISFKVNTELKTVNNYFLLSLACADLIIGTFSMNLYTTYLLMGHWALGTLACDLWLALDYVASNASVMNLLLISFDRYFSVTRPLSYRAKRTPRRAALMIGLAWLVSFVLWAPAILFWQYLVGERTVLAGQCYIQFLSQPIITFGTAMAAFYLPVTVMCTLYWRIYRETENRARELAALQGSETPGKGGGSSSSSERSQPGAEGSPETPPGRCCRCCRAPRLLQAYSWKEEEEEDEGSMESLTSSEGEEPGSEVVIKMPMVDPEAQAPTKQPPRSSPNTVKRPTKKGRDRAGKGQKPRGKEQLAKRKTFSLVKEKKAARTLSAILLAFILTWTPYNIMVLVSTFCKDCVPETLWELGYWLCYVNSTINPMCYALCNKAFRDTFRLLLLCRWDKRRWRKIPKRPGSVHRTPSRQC
row,Structure (SMILES),EC50 [nM]
1,"O=C(Nc1ccccc1CO)C1=CN(Cc2cccc(F)c2F)c2cccc(F)c2O1 [Example 44, N-(2-Hydroxymethylphenyl)-4-(2,3-difluorobenzyl)-8-fluoro-4H-benzo[1,4]oxazine-2-carboxamide]",1280
2,"O=C(Nc1ccccc1CO)C1=CN(Cc2cccc(F)c2F)c2ccccc2O1 [Example 45, N-(2-Hydroxymethylphenyl)-4-(2,3-difluorobenzyl)-4H-benzo[1,4]oxazine-2-carboxamide]",1580
3,"O=C(Nc1ccccc1CO)C1=CN(Cc2ccccc2F)c2cccc(F)c2O1 [Example 46, N-(2-Hydroxymethylphenyl)-4-(2-fluorobenzyl)-8-fluoro-4H-benzo[1,4]oxazine-2-carboxamide]",1080
4,"CC(C)C(CO)NC(=O)C1=CN(Cc2ccccc2F)c2cccc(F)c2O1 (stereo not drawn) [Example 47, N-(1-Hydroxymethyl-2-methylpropyl)-4-(2-fluorobenzyl)-8-fluoro-4H-benzo[1,4]oxazine-2-carboxamide]",1320
5,"O=C(N[C@H]1CCCC[C@@H]1O)C1=CN(Cc2ccnc(-c3ccccc3)c2)c2ccccc2O1 [Example 52, N-(cis-1S,2S-2-Hydroxycyclohexyl)-4-(2-phenylpyridin-4-ylmethyl)-4H-benzo[1,4]oxazine-2-carboxamide]",1350
6,"O=C(N[C@H]1CCCC[C@@H]1O)C1=CN(Cc2ccccn2)c2c(F)cccc2O1 [Example 56, N-(cis-1S,2S-2-Hydroxycyclohexyl)-4-(pyridin-2-ylmethyl)-5-fluoro-4H-benzo[1,4]oxazine-2-carboxamide]",1480
7,"Cc1cc(-c2cc(CN3C=C(C(=O)N[C@H]4CCCC[C@@H]4O)Oc4ccccc43)ccn2)cnc1F [Example 58, N-(cis-1S,2S-2-Hydroxycyclohexyl)-4-(6′-fluoro-5′-methyl-[2,3′]bipyridinyl-4-ylmethyl)-4H-benzo[1,4]oxazine-2-carboxamide]",1340
8,"O=C(N[C@H]1CCCC[C@@H]1O)C1=CN(Cc2ccccc2F)c2c(F)ccc(F)c2O1 [Example 61, N-(cis-1S,2S-2-Hydroxycyclohexyl)-4-(2-fluorobenzyl)-5,8-difluoro-4H-benzo[1,4]oxazine-2-carboxamide]",219
9,"O=C(NC1CCNCC1F)C1=CN(Cc2ccccc2F)c2cccc(F)c2O1 (stereo not drawn) [Example 73, N-(3-Fluoropiperidin-4-yl)-4-(2-fluorobenzyl)-8-fluoro-4H-benzo[1,4]oxazine-2-carboxamide hydrochloride]",2370
10,"O=C(NC1CCNCC1F)C1=CN(Cc2cccc(F)c2F)c2cccc(F)c2O1 (stereo not drawn) [Example 74, N-(3-Fluoropiperidin-4-yl)-4-(2,3-difluorobenzyl)-8-fluoro-4H-benzo[1,4]oxazine-2-carboxamide hydrochloride]",2100
11,"O=C(N[C@H]1CCCC[C@@H]1O)C1=CN(Cc2cccc(F)c2)c2ccccc2S1 [Example 86, N-(cis-1S,2S-2-Hydroxycyclohexyl)-4-(3-fluorobenzyl)-4H-benzo[1,4]thiazine-2-carboxamide]",936
12,"O=C(N[C@H]1CCCC[C@@H]1O)C1=CN(Cc2ccccc2)c2ccccc2[S+]1[O-] (stereo partly drawn) [Example 94, N-(cis-1S,2S-2-Hydroxycyclohexyl)-4-benzyl-1-oxo-4H-benzo[1,4]thiazine-2-carboxamide]",1400

# Second part, the molecule after the results:
row,EC50 [nM],Structure (SMILES)
1,143,"O=C(N[C@H]1CCCC[C@@H]1O)C1=CN(Cc2ccccc2)c2cccc(F)c2O1 [Example 48, N-(cis-1S,2S-2-Hydroxycyclohexyl)-4-benzyl-8-fluoro-4H-benzo[1,4]oxazine-2-carboxamide]"
2,230,"O=C(N[C@H]1CCCC[C@@H]1O)C1=CN(Cc2ccnc(-c3ccccc3)c2)c2cccc(F)c2O1 [Example 53, N-(cis-1S,2S-2-Hydroxycyclohexyl)-4-(2-phenylpyridin-4-ylmethyl)-8-fluoro-4H-benzo[1,4]oxazine-2-carboxamide]"
3,88,"O=C(N[C@H]1CCCC[C@@H]1O)C1=CN(Cc2ccnc(Cl)c2)c2cccc(F)c2O1 [Example 54, N-(cis-1S,2S-2-Hydroxycyclohexyl)-4-(2-chloropyridin-4-ylmethyl)-8-fluoro-4H-benzo[1,4]oxazine-2-carboxamide]"
4,828,"O=C(N[C@H]1CCCC[C@@H]1O)C1=CN(Cc2ccccc2F)c2c(F)cccc2O1 [Example 55, N-(cis-1S,2S-2-Hydroxycyclohexyl)-4-(2-fluorobenzyl)-5-fluoro-4H-benzo[1,4]oxazine-2-carboxamide]"
5,179,"O=C(N[C@H]1CCCC[C@@H]1O)C1=CN(Cc2ccncc2)c2cccc(F)c2O1 [Example 57, N-(cis-1S,2S-2-Hydroxycyclohexyl)-4-(pyridin-4-ylmethyl)-8-fluoro-4H-benzo[1,4]oxazine-2-carboxamide]"
6,1010,"Cn1ccc(-c2cc(CN3C=C(C(=O)N[C@H]4CCCC[C@@H]4O)Oc4ccccc43)ccn2)n1 [Example 59, N-(cis-1S,2S-2-Hydroxycyclohexyl)-4-[12-(1-methyl-1H-pyrazol-3-yl)-pyridin-4-ylmethyl]-4H-benzo[1,4]oxazine-2-carboxamide]"
7,160,"O=C(NC1CCNCC1O)C1=CN(Cc2cccc(F)c2F)c2cccc(F)c2O1 (stereo not drawn) [Example 75, N-(3-Hydroxypiperidin-4-yl)-4-(2,3-difluorobenzyl)-8-fluoro-4H-benzo[1,4]oxazine-2-carboxamide trifluoroacetate]"
8,412,"O=C(NC1CCNCC1O)C1=CN(Cc2ccccc2F)c2ccccc2O1 (stereo not drawn) [Example 76, N-(3-Hydroxypiperidin-4-yl)-4-(2-fluorobenzyl)-4H-benzo[1,4]oxazine-2-carboxamide trifluoroacetate]"
9,117,"O=C(N[C@H]1CCCC[C@@H]1O)C1=CN(Cc2cccc(F)c2F)c2ccccc2S1 [Example 85, N-(cis-1S,2S-2-Hydroxycyclohexyl)-4-(2,3-difluorobenzyl)-4H-benzo[1,4]thiazine-2-carboxamide]"
10,131,"O=C(N[C@H]1CCCC[C@@H]1O)C1=CN(Cc2ccccc2)c2ccccc2S1 [Example 87, N-(cis-1S,2S-2-Hydroxycyclohexyl)-4-benzyl-4H-benzo[1,4]thiazine-2-carboxamide]"
11,145,"COc1ccc(CN2C=C(C(=O)N[C@H]3CCCC[C@@H]3O)Sc3ccccc32)cc1 [Example 88, N-(cis-1S,2S-2-Hydroxycyclohexyl)-4-{4-methoxybenzyl}-4H-benzo[1,4]thiazine-2-carboxamide]"
12,460,"O=C(N[C@H]1CCCC[C@@H]1O)C1=CN(Cc2ccc(F)cc2)c2ccccc2S1 [Example 89, N-(cis-1S,2S-2-Hydroxycyclohexyl)-4-{4-fluorobenzyl}-4H-benzo[1,4]thiazine-2-carboxamide]"
13,599,"O=C(N[C@H]1CCCC[C@@H]1O)C1=CN(Cc2ccncc2)c2ccccc2S1 [Example 90, N-(cis-1S,2S-2-Hydroxycyclohexyl)-4-{pyridin-4-ylmethyl}-4H-benzo[1,4]thiazine-2-carboxamide]"
14,141,"O=C(N[C@H]1CCCC[C@@H]1O)C1=CN(Cc2ccc(Cl)nc2)c2ccccc2S1 [Example 91, N-(cis-1S,2S-2-Hydroxycyclohexyl)-4-{2-chloropyridin-5-ylmethyl}-4H-benzo[1,4]thiazine-2-carboxamide]"
15,906,"O=C(N[C@H]1CCCC[C@@H]1O)C1=CN(Cc2cccc(F)c2F)c2ccccc2[S+]1[O-] (stereo partly drawn) [Example 93, N-(cis-1S,2S-2-Hydroxycyclohexyl)-4-(2,3-difluorobenzyl)-1-oxo-4H-benzo[1,4]thiazine-2-carboxamide]"
